Non-standard residues stand in square brackets, D forms with d. Residues, ends and D or L forms follow the SMILES beside them. *: point of attachment. Decanoyl = CCCCCCCCCC(=O)*
Columns and labels:
Experiment in all cases: Antimicrobial susceptibility of transposon mutant
Format in all cases: cell-based
Design in all cases: key: No = no MIC changes of C10-KR8d against the WT and the mutant S. aureus strains measured in 50% TSB
[1] = tested on: S. aureus USA300 transposon mutant SAUSA300_0186 (argC); conditions: mutant SAUSA300_0186 argC versus WT
Procedure: (§1) The antimicrobial susceptibility of over 20 MRSA transposon mutants were also tested, based on a transposon library screening, in the presence of LL-37 peptides (Golla, et al. (2020) ACS Infect. Dis., 6:1866-1881). This Nebraska Transposon Mutant Library of S. aureus USA300 consists of 1920 mutants, each with one nonessential gene disabled due to a transposon insertion (Fey, et al. (2013) mBio 4:e00537-12). The correct insertion of the transposon to each Staph mutant had been verified (Golla, et al. (2020) ACS Infect. Dis., 6:1866-1881). Antimicrobial susceptibility to the new peptide C10-KR8d was evaluated in the same manner as MIC assays. Susceptible strains could be inhibited at a peptide concentration lower than the MIC against the wild strain S. aureus JE2.

[2] = tested on: S. aureus USA300 transposon mutant SAUSA300_0829 (lipA); conditions: mutant SAUSA300_0829 lipA versus WT
Procedure: as §1

[3] = tested on: S. aureus USA300 transposon mutant SAUSA300_1097 (pyrF); conditions: mutant SAUSA300_1097 pyrF versus WT
Procedure: as §1

[4] = tested on: S. aureus USA300 transposon mutant SAUSA300_1336; conditions: mutant SAUSA300_1336 versus WT
Procedure: as §1

[5] = tested on: S. aureus USA300 transposon mutant SAUSA300_1465; conditions: mutant SAUSA300_1465 versus WT
Procedure: as §1

[6] = tested on: S. aureus USA300 transposon mutant SAUSA300_1503; conditions: mutant SAUSA300_1503 versus WT
Procedure: as §1

[7] = tested on: S. aureus USA300 transposon mutant SAUSA300_1867; conditions: mutant SAUSA300_1867 versus WT
Procedure: as §1

[8] = tested on: S. aureus USA300 transposon mutant SAUSA300_1967; conditions: mutant SAUSA300_1967 versus WT
Procedure: as §1

Measured: Susceptible?

CCCCCCCCCC(=O)N[C@H](CCCCN)C(=O)N[C@H](CCCNC(=N)N)C(=O)N[C@@H](C(=O)N[C@H](Cc1c[nH]c2ccccc12)C(=O)N[C@H](CCC(N)=O)C(=O)N[C@H](CCCNC(=N)N)C(=O)N[C@@H](C(=O)N[C@H](CCCCN)C(N)=O)[C@H](C)CC)[C@H](C)CC [Peptide C10-KR8d] (Decanoyl-[dK][dR][dI][dW][dQ][dR][dI][dK]-NH2)
No: all assays above

Reference: patent US20240294572A1, “Antimicrobial Peptides” (priority 2021, published 2024)
